Experimental data from patent US20120277265A1, “NOVEL POLYQUINOLINE DERIVATIVES AND THE THERAPEUTIC USE THEREOF” (CENTRE NATIONAL DE LA RECHERCHE SCIENTIFIQUE (C.N.R.S.), priority 2005, published 2012).

Assays:
[1] = UV-visible spectrophotometric titration with CuCl2 (metal/ligand stoichiometry); assay type: binding; details: 15 μM ligand; Tris-HCl buffer pH 7.4/organic solvent, per ligand as in Table 3 column Solvent
Procedure: (§1) An organic solvent (CH3OH, dioxane or DMSO) was added in order to achieve good solubility of the ligands and metal complexes in the concentrations used in these experiments. Exact proportions of the organic solvent/buffer mixture are specified for each UV-visible characterisation of the different ligands or metal complexes.
(§2) Aliquot portions of concentrated CuCl2 or ZnCl2 solutions (M) are added to a 15 μM ligand solution so as to induce only negligible variations in volume. After each addition, changes in absorption spectra are observed immediately and are consistent between two additions, which corresponds to a rapid complexing process. The exact absorption values relating to each ligand and the copper(II) or zinc(II) complexes thereof are detailed hereinafter in the Experimental part (in the Synthesis part for ligands and hereinafter for the metal complexes).
(§3) The stoichiometry of the different ligands (L) for Cu(II) or ZN(II) have therefore been determined spectrophotometrically by metal ion titration. In this example, for an M/L ratio increasing from 0 to 1, π→π* with transition, centred at 251 nm for the free ligand, is shifted to a lower energy with a concomitant appearance of an absorption band in the visible region of the spectrum (λmax to 383 nm), which is probably the result of an MLCT transition. For greater M/L ratios, no additional change in the UV-visible absorption spectra is observed.

Aβ1-42 = target: T1, Aβ1-42 (Homo sapiens, UniProt P05067); test: Inhibition of the precipitation of Aβ1-42 by the addition of ligand (Micro BCA assay of soluble/aggregated peptide); assay type: biochemical; details: Aβ1-42 5 μM, pH 7.4; for CuCl2 % soluble Aβ: 20 μM CuCl2, 1 h 37° C. then 1 h with 200 μM ligand; for FeCl3 % soluble Aβ: 20 μM FeCl3, 1 h 37° C. then 1 h with 200 μM ligand; for ZnCl2 % soluble Aβ: 20 μM ZnCl2, 1 h 37° C. then 1 h with 200 μM ligand; for without metal % soluble Aβ: no metal salt, 1 h 37° C. then 1 h with 200 μM ligand
T1 construct: The β-amyloid peptide Aβ1-42 (Aβ1-42) was synthesised, purified (to a purity greater than 95%); made in house; host or cells: chemical peptide synthesis (no expression host)
Procedure: After a further hour of incubation, the reaction mixture is centrifuged.
Before use, the water [of Milli-Q Millipore quality] and all buffer solutions were treated on Chelex-100 resin (Biorad) (5 mg/ml) and filtered through 0.2 μm filters (Whatman) to remove potential traces of metal ions or particles.
Working solutions of the peptide were prepared by solubilising 1 mg of lyophilised peptide in 500 μl of water and 500 μl of an aqueous NaOH solution pH=12.0, while stirring in a Thermomixer Comfort (Eppendorf). The peptide preparations are subsequently centrifuged for 10 minutes at 9,000 rpm and the supernatant is used as an “Aβ stock” solution. The concentration of peptide in the “Aβ stock” is determined immediately by colorimetric assay using a Micro BCA Protein Assays kit (Pierce) from standard ranges produced using known amounts of bovine serum albumin (BSA) then the Aβ1-42 peptide solution is aliquoted and frozen rapidly in liquid nitrogen prior to being stored at −20° C. until being used.
Salts are generated by adding one hydrochloric acid equivalent per nitrogen group equivalent of the ligand dissolved in DMSO. After evaporation of the solvent, these salts are dissolved at the desired concentration with DMSO and kept at −20° C. until they are used.
The protocol was established from works by: C. S. Atwood et al., J. Neurochem. […] The final concentrations are given. 500 μl of Aβ1-42 (5 μM is set to aggregate in 20 mM Tris-HCl buffer containing 150 mM NaCl (pH=7.4) for 1 hour at 37° C. while stirring at 1,400 rpm in the absence or presence of metal ions: CuCl2, ZnCl2 or FeCl3 (20 μM). Then 50 pi of ligand to be tested (200 μM) dissolved in DMSO are added and the samples are incubated for 1 further hour at 37° C. while stirring at 1,400 rpm. The samples without ligand also receive 50 μl of DMSO. The samples (final volume=550 μ) are subsequently centrifuged for 20 min at 9,000 rpm, and 500 μl of supernatant are removed. The tube containing the precipitation pellet then receives 450 μl of assay buffer/DMSO mixture (91/9, v/v). […] Quantification is carried out on the basis of standard BSA ranges. The amounts of Aβ1-42 actually contained in the pellet and the supernatant are obtained after a correction due to the presence of a residual portion of supernatant in the pellet-containing fraction.
For the control experiments with derivatives comprising a single quinoline residue, […] of ligand were added because complexes of type L2Cu are conventionally used in these cases.

[2] = Hydrogen peroxide produced by Aβ1-42 in the presence of CuCl2, ascorbate, air and ligand (Amplex Red H2O2/HRP); assay type: biochemical; details: ligand 1 eq/Cu(II) (0.4 μM); CuCl2 0.4 μM, ascorbate 10 μM, air
Procedure: (§4) FIG. 11: Variation in H2O2 production by copper complexes of Aβ1-42 peptide as a function of the Cu(II)/Aβ stoichiometry. Experiments are carried out for 5 minutes in a sodium phosphate buffer (pH=7.4) in the presence 0.4 μM CuCl2, 10 μM ascorbate and air with or without 0.4 μM of 3 or 7. The H2O2 released is quantified by means of an Amplex-Red H2O2/HRP Assay kit.
(§5) The final concentrations are given. The reactions were carried out in the dark in mM sodium phosphate buffer (pH=7.4). Aβ1-42 (0.2 μM) and CuCl2 (0.4 μM) were pre-incubated for 1 hour at 37° C. while stirring at 1,400 rpm in 375 μl of buffer. Then 2 μl of a solution of ligand to be investigated (0.2; 0.4 or 0.8 μM) in DMSO were added. After incubation for a further hour, 2 μl of an aqueous sodium ascorbate solution (10 μM) were added and incubation was continued for 5 min while stirring. The amount of H2O2 produced is then quantified using an Amplex Red H2O2/HRP Assay Kit (Molecular Probes) while adding a volume of assay reagent to the samples, then incubating them for 1 hour at 37° C. while stirring at 500 rpm. […] Quantification is carried out on the basis of standard curves obtained with known amounts of H2O2.
(§6) The figures in the tables correspond to the amount of H2O2 (expressed in nanomoles) added using an Amplex Red H2O2/HRP Assay kit.

[3] = target: T2, copper complexes of Aβ1-42 peptide (Homo sapiens, UniProt P05067); test: as above; assay type: biochemical; details: ligand 1 eq/Cu(II) (0.4 μM); CuCl2 0.4 μM, ascorbate 10 μM, air
T2 construct: The β-amyloid peptide Aβ1-42 (Aβ1-42) was synthesised, purified (to a purity greater than 95%); made in house; host or cells: chemical peptide synthesis (no expression host)
Procedure: as §4, §5, §6

[4] = Determination of log D7.4 (1-octanol / Tris-HCl buffer); assay type: physicochemical; details: 1-octanol / 20 mM Tris-HCl buffer containing 150 mM NaCl (pH = 7.4) (1/1, v/v)
Procedure: The ligand (2.0 mg) is dissolved in 2 ml of 1-octanol then 2 ml of 20 mM Tris-HCl buffer, pH=7.4 containing 150 mM NaCl are added. After mixing in a vortex for 3 min at ambient temperature, followed by centrifugation for 5 min at 9,000 rpm, the concentration of the ligand in each phase is determined by UV-visible spectrophotometry. The 1-octanol fractions are thus redivided until reproducible values of coefficient of division of obtained. This coefficient is expressed as the decimal logarithm of [(the concentration of ligand contained in the 1-octanol phase)/(the concentration of ligand contained in the buffered aqueous phase)]=log D7.4. Measurements were taken three times.

[5] = Competition reaction between ligand (Ls), CuCl2 and competing chelator (Lc), UV-visible; affinity constants; details: Ls/CuCl2/Lc 1/1/1 at 15 μM; solvent per ligand as in Table 3
[6] = UV-visible spectrophotometric titration with ZnCl2 (metal/ligand stoichiometry); assay type: binding; details: 15 μM ligand; Tris-HCl buffer pH 7.4/organic solvent, per ligand as in Table 3 column Solvent
Procedure: as §1, §2, §3

[7] = Competition reaction between ligand (Ls), ZnCl2 and competing chelator (Lc), UV-visible; affinity constants; assay type: binding; details: Ls/ZnCl2/Lc 1/1/1 at 15 μM; solvent per ligand as in Table 3
Procedure: An organic solvent (CH3OH, dioxane or DMSO) was added in order to achieve good solubility of all the ligands and metal complexes in the concentrations used in these experiments.
As the concentration [MLs]=x % of C is measured on the UV-visible spectra, the concentrations [Ls]=(1−x) % of C, [MLc]=(1−x) % of C and [Lc]=x % of C can be deduced therefrom and:
In these conditions, [MLs]=[MLc]; [MLs]+[Lc]=Y, y≧50 and:
When log Ks 6, these equations are not used since the percentages of metal ion which is free in the solution or chelated by the solvent or the buffer are not negligible.

T2 sequence (P05067 672-713 limits assumed, one chain of several): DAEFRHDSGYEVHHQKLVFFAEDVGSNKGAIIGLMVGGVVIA
T1 sequence (P05067 672-713): as the sequence (P05067 672-713 limits assumed, one chain of several) above

c1cnc2c(NCCCNc3cccc4cccnc34)cccc2c1 [Compound 13, N,N′-di-8-quinolinyl-1,3-propanediamine]
Complex observed by titration with Cu^II (observed L/Cu(II) stoichiometry) [1]: LCu^II(1/1) | CuCl2 % soluble Aβ (Aβ1-42): 55 ± 3% | FeCl3 % soluble Aβ (Aβ1-42): 66% | ZnCl2 % soluble Aβ (Aβ1-42): 57% | without metal % soluble Aβ (Aβ1-42): 71 ± 2% | amount of H2O2, without Aβ1-42 [2]: 0.89 nmol | amount of H2O2, 0.2 μM Aβ1-42 Cu/Aβ = 2 [3]: 2.10 nmol | amount of H2O2, 0.5 μM Aβ1-42 Cu/Aβ = 0.75 [3]: 0.70 nmol | logD at 3 min [4]: 2.7 ± 0.1 | percentage of the CuLs species at equilibrium, competing ligand EDDA [5]: 65% | percentage of the CuLs species at equilibrium, competing ligand EDTA [5]: 25%

COc1ccc2ccc(CCc3ccc4ccc(OC)c(O)c4n3)nc2c1O [Compound 17, 2,2′-(1,2-ethanediyl)-bis[7-(methyloxy)-8-quinolinol]]
Complex observed by titration with Cu^II (observed L/Cu(II) stoichiometry) [1]: LCu^II(1/1) | Complex observed by titration with Zn^II (observed L/Zn(II) stoichiometry) [6]: LZn^II(1/1) | percentage of ZnLs species at equilibrium, competing ligand EDTA [7]: 35% | CuCl2 % soluble Aβ (Aβ1-42): 38 ± 4% | FeCl3 % soluble Aβ (Aβ1-42): 38% | ZnCl2 % soluble Aβ (Aβ1-42): 42 ± 4% | without metal % soluble Aβ (Aβ1-42): 63 ± 3% | amount of H2O2, 0.2 μM Aβ1-42 Cu/Aβ = 2 [3]: 0.69 nmol | logD at 3 min [4]: 3.5 ± 0.1 | percentage of the CuLs species at equilibrium, competing ligand EDTA [5]: 55%
